Measured values reported in ChEMBL document CHEMBL1201862, “PubChem BioAssay data set” (2004).
Active and inactive are the calls of the source. For most assays here, no stated cut-off is given here; in the data, actives have a measured EC50 and inactives only a lower limit.

What was measured:
[1] = target: T1, Replicative DNA helicase DnaB (Mycobacterium tuberculosis, UniProt P9WMR3); test: DnaB intein splicing inhibitors, dose response, biochemical, cell-free fluorescence (AID 449749); assay type: functional
T1 sequence (P9WMR3 whole entry): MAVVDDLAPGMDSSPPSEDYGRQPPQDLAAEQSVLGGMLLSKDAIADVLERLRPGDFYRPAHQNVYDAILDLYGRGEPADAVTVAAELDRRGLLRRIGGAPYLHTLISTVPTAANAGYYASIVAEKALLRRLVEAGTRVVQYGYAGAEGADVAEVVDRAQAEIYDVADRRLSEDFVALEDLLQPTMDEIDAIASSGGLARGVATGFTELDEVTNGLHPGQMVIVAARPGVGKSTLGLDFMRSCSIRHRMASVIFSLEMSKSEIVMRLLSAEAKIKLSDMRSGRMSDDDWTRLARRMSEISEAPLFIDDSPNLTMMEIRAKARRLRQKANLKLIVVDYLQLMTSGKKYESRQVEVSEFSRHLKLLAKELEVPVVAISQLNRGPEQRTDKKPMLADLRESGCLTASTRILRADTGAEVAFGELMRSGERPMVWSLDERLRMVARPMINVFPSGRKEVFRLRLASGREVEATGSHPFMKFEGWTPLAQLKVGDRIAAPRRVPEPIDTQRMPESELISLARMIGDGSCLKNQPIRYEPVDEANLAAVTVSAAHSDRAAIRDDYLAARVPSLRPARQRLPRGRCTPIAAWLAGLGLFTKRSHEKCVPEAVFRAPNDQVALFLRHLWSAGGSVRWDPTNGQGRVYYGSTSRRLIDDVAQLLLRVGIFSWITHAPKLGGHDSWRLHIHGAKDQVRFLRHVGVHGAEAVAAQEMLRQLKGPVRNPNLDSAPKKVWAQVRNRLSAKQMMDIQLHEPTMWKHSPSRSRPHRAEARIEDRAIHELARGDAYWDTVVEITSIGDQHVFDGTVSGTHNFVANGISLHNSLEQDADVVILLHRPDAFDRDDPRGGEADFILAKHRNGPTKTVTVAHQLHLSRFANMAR

Protein RecA = target: T2, Protein RecA (Mycobacterium tuberculosis, UniProt P9WHJ3); test: Fluorescence Cell-Free Homogeneous Dose Retest to Identify Inhibitors of RecA-Intein Splicing Activity. [Related pubchem assays (depositor defined):AID2097, AID2223, AID489010, AID492950]; assay type: functional
T2 sequence (P9WHJ3 whole entry): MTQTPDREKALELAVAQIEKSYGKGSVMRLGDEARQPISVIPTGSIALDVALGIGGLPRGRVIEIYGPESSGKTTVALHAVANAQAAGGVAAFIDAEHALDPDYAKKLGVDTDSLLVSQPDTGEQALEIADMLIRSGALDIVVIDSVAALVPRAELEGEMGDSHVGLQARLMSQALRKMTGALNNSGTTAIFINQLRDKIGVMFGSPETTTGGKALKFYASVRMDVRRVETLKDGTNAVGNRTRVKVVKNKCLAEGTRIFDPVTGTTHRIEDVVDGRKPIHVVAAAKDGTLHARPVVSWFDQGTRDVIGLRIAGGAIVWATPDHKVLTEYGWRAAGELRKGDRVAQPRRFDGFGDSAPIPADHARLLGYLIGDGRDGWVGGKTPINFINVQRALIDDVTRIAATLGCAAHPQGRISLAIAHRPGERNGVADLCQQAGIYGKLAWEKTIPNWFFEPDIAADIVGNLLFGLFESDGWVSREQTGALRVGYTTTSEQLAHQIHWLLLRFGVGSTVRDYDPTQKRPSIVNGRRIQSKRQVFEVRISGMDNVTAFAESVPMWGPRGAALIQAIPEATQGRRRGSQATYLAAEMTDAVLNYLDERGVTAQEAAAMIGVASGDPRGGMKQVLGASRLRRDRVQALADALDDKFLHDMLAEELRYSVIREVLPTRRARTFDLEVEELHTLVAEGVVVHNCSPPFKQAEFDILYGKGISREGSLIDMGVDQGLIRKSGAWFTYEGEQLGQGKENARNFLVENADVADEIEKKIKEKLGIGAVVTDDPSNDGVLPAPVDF

Cytochrome P450 2D6 = Cytochrome P450 2D6 (Homo sapiens, UniProt P10635);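 further: CYP2D6 member of a cytochrome P450 panel assay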
Cytochrome P450 2D6, sequence (P10635 whole entry): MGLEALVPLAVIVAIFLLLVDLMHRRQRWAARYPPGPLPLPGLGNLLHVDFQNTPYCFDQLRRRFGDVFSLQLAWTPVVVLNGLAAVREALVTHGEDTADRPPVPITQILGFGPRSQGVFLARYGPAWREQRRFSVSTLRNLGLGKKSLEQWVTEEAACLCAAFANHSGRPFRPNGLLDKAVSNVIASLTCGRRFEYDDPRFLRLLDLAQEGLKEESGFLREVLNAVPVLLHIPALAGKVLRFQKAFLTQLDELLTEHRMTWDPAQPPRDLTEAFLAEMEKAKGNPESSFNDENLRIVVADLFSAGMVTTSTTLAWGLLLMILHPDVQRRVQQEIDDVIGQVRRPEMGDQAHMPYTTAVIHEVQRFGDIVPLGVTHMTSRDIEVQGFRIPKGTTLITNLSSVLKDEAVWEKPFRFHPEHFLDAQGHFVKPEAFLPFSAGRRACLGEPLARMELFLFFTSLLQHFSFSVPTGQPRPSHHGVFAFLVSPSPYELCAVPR

[2] = NIH3T3 cell viability loss – ATP luminescence, mouse fibroblasts, counter-screen, dose response (AID 2010); assay type: functional, cell-based;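 further: cells exposed to compound for about 90 hours before reading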
[3] = Trypanosoma cruzi growth suppression in host cells – NIH3T3 host cells, beta-gal luminescence, confirmation (AID 2044); assay type: functional, cell-based;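 further: intracellular parasites grown in NIH/3T3 mouse fibroblasts as host cells; luminescent beta-galactosidase reporter signal from transgenic T. cruzi replicating inside host cells; inhibitors lower the luminescence signal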
Large T antigen = Large T antigen (Simian virus 40, UniProt P03070); assay type: functional, Betapolyomavirus macacae;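 further: Confirmatory-stage PubChem screen for compounds that inhibit SV40 T antigen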
Large T antigen, sequence (P03070 whole entry): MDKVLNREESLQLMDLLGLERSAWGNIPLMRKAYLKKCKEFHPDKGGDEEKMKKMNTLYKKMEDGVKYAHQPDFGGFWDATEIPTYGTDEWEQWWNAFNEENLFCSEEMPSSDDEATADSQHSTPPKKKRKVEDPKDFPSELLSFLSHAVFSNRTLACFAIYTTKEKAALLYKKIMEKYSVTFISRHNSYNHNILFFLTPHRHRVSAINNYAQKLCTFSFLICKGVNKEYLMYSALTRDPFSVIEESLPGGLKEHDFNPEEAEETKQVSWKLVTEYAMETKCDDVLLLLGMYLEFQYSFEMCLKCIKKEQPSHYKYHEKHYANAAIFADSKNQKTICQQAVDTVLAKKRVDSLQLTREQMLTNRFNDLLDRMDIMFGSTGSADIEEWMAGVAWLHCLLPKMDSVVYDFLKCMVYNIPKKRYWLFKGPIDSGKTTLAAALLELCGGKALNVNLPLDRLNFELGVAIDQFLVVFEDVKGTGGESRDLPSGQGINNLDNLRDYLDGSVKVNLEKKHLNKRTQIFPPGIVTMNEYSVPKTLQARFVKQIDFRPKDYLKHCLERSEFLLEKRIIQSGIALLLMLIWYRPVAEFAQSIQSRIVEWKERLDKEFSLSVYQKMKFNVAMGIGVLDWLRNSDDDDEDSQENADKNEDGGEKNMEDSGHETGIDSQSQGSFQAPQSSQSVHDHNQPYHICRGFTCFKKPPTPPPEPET

[4] = target: T3, Corticotropin-releasing factor receptor 2/Corticotropin-releasing factor-binding protein (Homo sapiens, UniProt P24387+Q13324); test: activators of CRF receptor 2 with binding protein – uHTS hits, confirmation (AID 602473); assay type: functional; conditions: read-out: EC50_Mean
T3 sequence (Q13324 whole entry): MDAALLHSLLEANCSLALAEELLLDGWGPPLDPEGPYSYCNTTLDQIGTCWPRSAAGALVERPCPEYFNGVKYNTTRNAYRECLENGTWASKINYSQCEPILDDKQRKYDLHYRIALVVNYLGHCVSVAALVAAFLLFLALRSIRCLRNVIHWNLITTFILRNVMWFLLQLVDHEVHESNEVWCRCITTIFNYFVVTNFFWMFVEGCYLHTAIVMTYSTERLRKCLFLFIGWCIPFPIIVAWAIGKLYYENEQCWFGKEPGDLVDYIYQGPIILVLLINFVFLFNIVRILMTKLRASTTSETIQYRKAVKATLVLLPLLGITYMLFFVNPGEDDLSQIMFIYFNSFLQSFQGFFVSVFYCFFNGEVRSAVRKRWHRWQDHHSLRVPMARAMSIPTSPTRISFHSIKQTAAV
T3 sequence (P24387 whole entry): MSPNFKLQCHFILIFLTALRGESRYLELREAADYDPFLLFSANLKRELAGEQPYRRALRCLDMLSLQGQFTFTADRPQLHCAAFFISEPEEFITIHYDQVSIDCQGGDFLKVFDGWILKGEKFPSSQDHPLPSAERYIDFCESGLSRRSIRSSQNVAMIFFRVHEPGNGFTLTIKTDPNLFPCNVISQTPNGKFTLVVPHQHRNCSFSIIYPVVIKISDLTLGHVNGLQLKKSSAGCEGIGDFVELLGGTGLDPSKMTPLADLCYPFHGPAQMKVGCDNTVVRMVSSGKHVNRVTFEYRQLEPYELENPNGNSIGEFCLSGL

## COc1cc(/C=C2/C(=O)N(c3ccccc3)N=C2C)ccc1OS(=O)(=O)c1ccccc1
[1]
  AC50: 1.94 µM (active)
Protein RecA
  EC50: 1.5 µM (active)

## COc1ccc([C@@H](C)c2cc3c(cc2O)OCO3)cc1
Cytochrome P450 2D6
  AC50: 3.98 µM (inconclusive)

## COc1ccccc1/N=C/C=C1OC(C)(C)C(C)(C)O1
[2]
  EC50: > 60 µM (not active)
[3]
  EC50: 3.65 µM (active)

## COc1cc(/C=N/NC(=O)CC#N)cc(Br)c1O
Large T antigen
  IC50: 9.57 µM (active)

## C=CCn1c(SCC(C)=O)nc2scc(-c3ccco3)c2c1=O
Large T antigen
  IC50: 60.2 µM (active)

## O=C1COC(c2ccccc2O)=NN1CCCN1CCCC1
Cytochrome P450 2D6
  AC50: 3.16 µM (inconclusive)

## O=C(Oc1ccc(Br)cc1C(=S)N1CCCCC1)c1cc([N+](=O)[O-])cc([N+](=O)[O-])c1
[1]
  AC50: 23.9 µM (active)
Protein RecA
  EC50: 1.71 µM (active)

## COc1ccc2[nH]c(C)c(CCN(Cc3cccs3)C(S)=Nc3cccc(F)c3)c2c1
[2]
  EC50: > 60 µM (not active)
[3]
  EC50: 3.35 µM (active)

## CCN(C(=O)CSc1ncccc1C(=O)Oc1cccc([N+](=O)[O-])c1)c1cccc(C)c1
[1]
  AC50: 3.43 µM (active)
Protein RecA
  EC50: > 380 µM (inconclusive)

## CN1CCN(/N=C/c2ccc(-c3ccc([N+](=O)[O-])cc3Cl)o2)CC1
[2]
  EC50: > 60 µM (inconclusive)
[3]
  EC50: 0.474 µM (active)

## COc1cc(/C=N/NC(=O)C(=O)NCc2ccco2)ccc1O
Large T antigen
  IC50: 12.9 µM (active)

## COC(=O)[C@@]1(Cc2ccccc2)[C@H]2c3cc(C(=O)N(C)C)n(Cc4ccsc4Br)c3C[C@H]2CN1C(=O)c1ccccc1
Cytochrome P450 2D6
  AC50: 31.6 µM (inconclusive)

## Nc1ccc(O)c2ccccc12
[1]
  AC50: 16 µM (active)
Protein RecA
  EC50: 10.1 µM (active)

## CC(C)N1CCc2c(sc(NC(=O)c3ccc(S(=O)(=O)N4CCOCC4)cc3)c2C#N)C1
[4]
  EC50: 5.69 µM (active)

## CCCN1CCC[C@@H]2Cc3nc(N)ncc3C[C@H]21 [QUINELORANE]
Cytochrome P450 2D6
  AC50: 25.1 µM (inconclusive)

## CCN1C(=O)C2(C(C(=O)c3cc4ccccc4o3)=C(O)C(=O)N2CCCN(C)C)c2ccccc21 (stereo not given)
Large T antigen
  IC50: 52.4 µM (active)

## CCOc1ccc(C(c2c(C)n[nH]c2O)c2c(C)n[nH]c2O)cc1OCC
[1]
  AC50: 0.412 µM (active)
Protein RecA
  EC50: 0.183 µM (active)

## Cc1ccc(S(=O)(=O)CCC(=O)c2cccc([N+](=O)[O-])c2)cc1
[2]
  EC50: > 60 µM (not active)
[3]
  EC50: 2.47 µM (active)

## Cc1ccccc1-n1nc2c(c1NC(=O)c1ccc(S(=O)(=O)N(C)C)cc1)CSC2
Cytochrome P450 2D6
  AC50: 28.2 µM (inconclusive)

## Cn1c(=O)c2c(nc(S)n2Cc2ccc(Cl)cc2)n(C)c1=O
Large T antigen
  IC50: 16.2 µM (active)

## N#C/C(=C(/O)c1ccc([N+](=O)[O-])s1)c1nc2ccccc2[nH]1
[2]
  EC50: 4.89 µM (active)
[3]
  EC50: 0.233 µM (active)

## NS(=O)(=O)c1ccc(/N=C/c2c(O)oc3ccccc3c2=O)cc1
[1]
  AC50: > 380 µM (inactive)
Protein RecA
  EC50: > 380 µM (inactive)

## Cc1ccc(-n2nnnc2CCl)cc1
[1]
  AC50: 54.2 µM (active)
Protein RecA
  EC50: 7.8 µM (active)
